Results: patent US20240342121A1, “THE USE OF BETA-HYDROXYBUTYRATES FOR THE TREATMENT OR PREVENTION OF ANEURYSMS AND DISSECTIONS” (priority 2021, published 2024)
Entries after “also recorded” stand apart in the source; their conditions may differ.

Columns and labels:
senescent SMCs = experiment: Cellular viability (cytotoxicity) assay of senescent and normal SMCs; format: cell-based; conditions: premature senescence by H2O2, Arsenite or Nutlin 3a, FIG. 2A
Procedure: FIGS. 2A-2L. (a) Cytotoxicity assay of normal smooth muscle cells (NS) and senescent smooth muscle cells (SMCs). Replicative senescent SMCs (RS) and premature senescent SMCs, stimulated by H2O2 (HP), arsenic (Ars), and Nutlin 3a (Nut) treatment were treated with βHB, s-βHB, and ABT-737. (b) Flow cytometry analysis of apoptosis by βHB or s-βHB in radiation (10 Gy)-induced senescent SMC. (c) Quantitation of apoptotic cell and senescent cell after treating βHB and s-βHB in radiation-induced senescent SMC. (d) Representative aorta image of AII-infused mice with post-treatment of ABT-737, βHB and s-βHB. (e) External diameter of abdominal aorta infused with AII and post-treated with ABT-737 βHB and s-βHB. (f) SA-βGal activity assay of the whole aorta infused with AII, and post-treated with ABT-737, KD, or KE. (g) Quantitation of senescent area on aorta of AII-infused mice, and post-treated with KD, KE and ABT-737. (h) TUNEL assay on the abdominal aorta of AII infused mice, and treated with ABT-737, βHB, or s-βHB. SM-α Actin (SMA) and DAPI are co-stained after TUNEL reaction. […]
The clearance of senescent cells that accumulate during the aneurysm development is required to reduce the volume of aneurysm plaque. Thus, the senotherapeutic potential of βHB to reverse AAA progression was evaluated. […]

normal SMCs (NC) = experiment: Caspase 3 activity assay on normal SMCs; format: cell-based; conditions: FIG. 2I
Procedure: FIGS. 2A-2L. (a) Cytotoxicity assay of normal smooth muscle cells (NS) and senescent smooth muscle cells (SMCs). Replicative senescent SMCs (RS) and premature senescent SMCs, stimulated by H2O2 (HP), arsenic (Ars), and Nutlin 3a (Nut) treatment were treated with βHB, s-βHB, and ABT-737. (b) Flow cytometry analysis of apoptosis by βHB or s-βHB in radiation (10 Gy)-induced senescent SMC. (c) Quantitation of apoptotic cell and senescent cell after treating βHB and s-βHB in radiation-induced senescent SMC. (d) Representative aorta image of AII-infused mice with post-treatment of ABT-737, βHB and s-βHB. (e) External diameter of abdominal aorta infused with AII and post-treated with ABT-737 βHB and s-βHB. (f) SA-βGal activity assay of the whole aorta infused with AII, and post-treated with ABT-737, KD, or KE. (g) Quantitation of senescent area on aorta of AII-infused mice, and post-treated with KD, KE and ABT-737. (h) TUNEL assay on the abdominal aorta of AII infused mice, and treated with ABT-737, βHB, or s-βHB. SM-α Actin (SMA) and DAPI are co-stained after TUNEL reaction. (i) Caspase 3 activity assay on normal SMCs (NC) treated with βHB, or s-βHB, and ABT-737 comparing to normal cells pretreated with Nutlin-3a. (j) Caspase 3 activity assay on senescent SMCs (SNC) treated with βHB, or s-βHB, and ABT-737 compared to senescent cells pretreated with pifithrin-α. (k) Western blot analysis for p53 and puma expression on abdominal aorta tissue from mice treated with AII or KE. (I) Immunohistochemistry staining for puma expression on abdominal aorta infused by AII and post-treated with KE.
To overcome the anti-apoptotic barrier of senescence cells, senolytics usually target p53/Bcl2 cascades. Moreover, p53 is considered as a barrier to prevent apoptosis in senescence cells. Therefore, it was investigated if βHB-mediated apoptosis is p53 dependent. […] To further validate p53 dependent apoptosis on AAA, p53 activation and puma expression were investigated. […] In addition, inflammatory response accompanying the apoptosis of senescence cells was observed specifically in the abdominal aorta tissue, while systemic inflammation decreased during ketotherapy (FIGS. 10A-F). […] Ketotherapy can lower the blood pressure caused by AII infusion, which is not the case with ABT-737 (FIGS. 10H-J).

[1] = in vivo
Text: We established an in vivo tolerance test of βHB and s-βHB (FIGS. 9A and 9B). […] The reduction of the inner diameter of the aortic wall is also dramatic in the treatment of s-βHB in FIG. 9F (Two-way ANOVA, ^###P<0.005, n=10).

CaCl2-induced AAA = CaCl2-induced AAA animal model, post-treatment; format: in vivo, mouse
Procedure: FIGS. 5A-5J. (a) Representative image of aorta which developed CaCl2)-induced AAA, and post-treated with KD, KE, βHB, s-βHB, or ABT-737. KD is provided to mice for 4 weeks, KE is administrated with drinking water, βHB, s-βHB or ABT-737 are IP injected for 2 weeks with 48h intervals. (b) Incidence of AAA by CaCl2) treatment and proportion of mice recovered from the AAA after post-treatment of KD, KE, βHB and s-βHB for 2 weeks. (c) Time-dependent observation of inner diameter after CaCl2) treatment and post-treatment of KD or KE (28˜56 days after surgery). (d) Comparison of ultrasound images of CaCl2)-induced AAA to the identical aorta post-treated with βHB for 2 weeks. (e) H&E staining of aorta from the mice developed with CaCl2)-induced AAA, and post-treated with KD, KE, βHB, and s-βHB. (f) SA β-Gal activity assay on aorta which developed CaCl2)-induced AAA, and post-treated with KD, KE, βHB, s-βHB, or ABT-737. (g) Quantitation of senescent area on aorta developed with CaCl2)-induced AAA, and post-treated with KD, KE, βHB, s-βHB. (h) Verhoeff Van Gieson/EVG staining of abdominal aorta developed with CaCl2)-induced AAA, post-treated with KD, KE, βHB and s-βHB. (i) Average number of elastic fibers on abdominal aorta presented at FIG. 5H. (j) Measurement of Pulse Wave Velocity (PWV) on CaCl2)-infused mice with post-treatment of KD, KE, βHB, and s-βHB.
To confirm the possibility that the therapeutic effect of βHB on AAA is not only applied to AII-induced AAA, the CaCl2)-induced AAA animal model was also examined as well (FIG. 5A).
To further validate the therapeutic efficacy of s-βHB on aneurysms, we used a CaCl2-induced AAA animal model as well as an angiotensin II infusion model. […] Two-way ANOVA, s-βHB vs βHB, #P<0.01, n=10. Since the elimination of senescent SMCs is critical for the recovery of AAA, we investigated that s-βHB is also effective to remove senescent cells in CaCl2)-induced aneurysms. […] Student's T-test for s-βHB vs βHB, ^#P<0.05, n=8.

[2] = system: lysine β-hydroxybutyrylation (KβHB); experiment: Immunoblotting of lysine β-hydroxybutyrylation (KβHB) in SMCs; format: cell-based; conditions: FIG. 15A
Text: FIGS. 15A-15B show immunoblotting of lysine β-hydroxybutyrylation (KβHB) on whole cell lysate (WCL) and fractionated lysate. (b) Immunofluorescent staining of SMA, KβHB, and DAPI on abdominal aorta.
Since epigenetic regulation directly affects the activity of transcriptional factors, such as Oct4, we evaluated if βHB is related to histone remodeling. βHB is a substrate of acyltransferase resulting in β-hydroxybutyrylation, a unique posttranslational modification that controls protein activity or gene expression. We hypothesize that β-hydroxybutyrylation on histone induces histone remodeling facilitating cellular reprogramming. To determine that β-hydroxybutyrylation (KβHB) is observed in senescent SMCs or aneurysms, we applied a specific antibody detecting KβHB modified protein. […] Together, it is supposed that β-hydroxybutyryl histone triggers the reprogramming process of senescent SMCs by regulating Oct4, which is overexpressed in aneurysms.

C[C@@H](O)CC(=O)O [βHB, (R)-3-Hydroxybutyrate]
number of senescent SMCs versus normal SMCs (senescent SMCs): selectively reduced the number of senescent SMCs and not normal SMCs; also recorded: slightly reduced | apoptosis in normal cells after p53 stabilization (normal SMCs (NC); after p53 stabilization by Nutlin 3a): triggers apoptosis | apoptosis in normal cells (NC) (normal SMCs (NC); without Nutlin 3a): did not induce apoptosis | half-life [1]: 50 min | metabolic elimination rate [1]: faster than s-βHB | abnormal curvature on aortic wall (ultrasound) (CaCl2-induced AAA; FIG. 5D): repaired abnormal curvature on aortic wall | recovery from CaCl2-induced AAA (CaCl2-induced AAA; FIGS. 5A and 5B): Effective recovery | senescent cells, SA β-gal assay (CaCl2-induced AAA; FIGS. 5F and 5G): significantly reduced; also recorded: less effective than KD, KE and s-βHB | elastic laminar / vascular integrity (CaCl2-induced AAA; FIGS. 5H and 5I): improved vascular integrity | recovery rate of AAA (CaCl2-induced AAA; comparison between treatments, FIG. 5B): less effectiveness compared to s-βHB, KD, and KE treatment | AAA progression (CaCl2-induced AAA; post-treatment after four weeks, FIG. 5C): inhibited AAA progression | KβHB modified proteins, Western blot [2]: increases KβHB modified proteins
